The source of these data is PMC5748279, “Novel Antitubercular 6-Dialkylaminopyrimidine Carboxamides from Phenotypic Whole-Cell High Throughput Screening of a SoftFocus Library: Structure–Activity Relationship and Target Identification Studies” (Journal of Medicinal Chemistry, 2017).

Read-outs that look alike come from different tables or passages of the source.

Assay [1] concerns 13-resistant mutant of Mtb H37Rv. In kind it is cell-based, Mycobacterium tuberculosis.
For another assay, the target named is (UniProt A0A0H3M9R5). Put plainly: biochemical. In kind it is binding, Mycobacterium bovis BCG.
The next assay addresses (UniProt A0A0H3MB87). Put plainly: biochemical. In kind it is binding, Mycobacterium bovis BCG.
Another assay has as its target (UniProt A0A0H3MC72). Put plainly: biochemical. It is filed as binding, Mycobacterium bovis BCG.
In a further assay the target is (UniProt A0A0H3MFG4). Put plainly: biochemical. It is filed as binding, Mycobacterium bovis BCG.
Chain of (UniProt A0A0H3MFG4) (A0A0H3MFG4 1-834): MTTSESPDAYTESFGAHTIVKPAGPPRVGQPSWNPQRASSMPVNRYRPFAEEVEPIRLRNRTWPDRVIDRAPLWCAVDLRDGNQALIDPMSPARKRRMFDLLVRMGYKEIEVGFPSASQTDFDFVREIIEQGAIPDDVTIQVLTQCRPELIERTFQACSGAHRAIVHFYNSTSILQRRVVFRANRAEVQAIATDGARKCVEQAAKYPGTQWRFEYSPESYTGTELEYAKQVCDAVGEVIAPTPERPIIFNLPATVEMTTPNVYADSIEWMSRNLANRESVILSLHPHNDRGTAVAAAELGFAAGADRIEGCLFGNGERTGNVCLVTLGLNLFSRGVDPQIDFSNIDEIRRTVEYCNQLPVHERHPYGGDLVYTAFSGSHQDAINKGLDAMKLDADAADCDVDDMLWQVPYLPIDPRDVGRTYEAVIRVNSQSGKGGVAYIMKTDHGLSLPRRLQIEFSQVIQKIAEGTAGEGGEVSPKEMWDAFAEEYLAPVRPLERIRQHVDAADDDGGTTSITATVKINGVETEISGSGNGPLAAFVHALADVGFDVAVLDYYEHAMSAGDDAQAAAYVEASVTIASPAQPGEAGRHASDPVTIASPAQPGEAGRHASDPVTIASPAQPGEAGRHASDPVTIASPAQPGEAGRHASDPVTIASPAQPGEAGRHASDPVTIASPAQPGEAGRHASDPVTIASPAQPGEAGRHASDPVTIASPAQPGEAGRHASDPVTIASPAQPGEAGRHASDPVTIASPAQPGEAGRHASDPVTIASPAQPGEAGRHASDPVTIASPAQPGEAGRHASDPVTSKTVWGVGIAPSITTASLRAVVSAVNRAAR

Chain of (UniProt A0A0H3MC72) (A0A0H3MC72 1-488): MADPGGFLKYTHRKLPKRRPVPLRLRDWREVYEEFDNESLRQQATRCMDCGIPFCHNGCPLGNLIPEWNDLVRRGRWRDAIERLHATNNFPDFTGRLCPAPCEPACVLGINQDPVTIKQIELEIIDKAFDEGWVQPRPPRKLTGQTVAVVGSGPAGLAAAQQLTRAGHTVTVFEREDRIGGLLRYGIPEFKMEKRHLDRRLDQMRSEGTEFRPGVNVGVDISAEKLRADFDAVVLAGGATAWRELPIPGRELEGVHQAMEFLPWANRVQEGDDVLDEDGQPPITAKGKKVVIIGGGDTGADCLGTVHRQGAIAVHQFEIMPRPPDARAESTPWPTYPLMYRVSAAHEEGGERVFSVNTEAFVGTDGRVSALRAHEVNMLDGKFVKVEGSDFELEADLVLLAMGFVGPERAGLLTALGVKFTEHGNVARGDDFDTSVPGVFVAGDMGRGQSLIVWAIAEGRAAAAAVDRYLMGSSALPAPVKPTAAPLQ
Chain of (UniProt A0A0H3MB87) (A0A0H3MB87 1-463): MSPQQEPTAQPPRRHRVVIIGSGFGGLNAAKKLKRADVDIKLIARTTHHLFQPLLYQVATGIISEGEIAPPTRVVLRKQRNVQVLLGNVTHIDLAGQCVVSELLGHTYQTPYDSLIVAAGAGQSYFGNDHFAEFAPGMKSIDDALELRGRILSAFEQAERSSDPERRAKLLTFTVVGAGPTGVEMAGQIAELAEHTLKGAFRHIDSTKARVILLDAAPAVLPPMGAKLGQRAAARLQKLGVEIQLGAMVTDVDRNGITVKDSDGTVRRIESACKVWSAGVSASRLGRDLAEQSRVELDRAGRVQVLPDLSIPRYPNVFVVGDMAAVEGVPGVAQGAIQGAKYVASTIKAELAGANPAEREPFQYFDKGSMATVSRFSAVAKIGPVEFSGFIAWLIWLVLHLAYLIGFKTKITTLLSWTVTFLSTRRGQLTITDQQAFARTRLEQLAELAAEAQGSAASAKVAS
Chain of (UniProt A0A0H3M9R5) (A0A0H3M9R5 1-518): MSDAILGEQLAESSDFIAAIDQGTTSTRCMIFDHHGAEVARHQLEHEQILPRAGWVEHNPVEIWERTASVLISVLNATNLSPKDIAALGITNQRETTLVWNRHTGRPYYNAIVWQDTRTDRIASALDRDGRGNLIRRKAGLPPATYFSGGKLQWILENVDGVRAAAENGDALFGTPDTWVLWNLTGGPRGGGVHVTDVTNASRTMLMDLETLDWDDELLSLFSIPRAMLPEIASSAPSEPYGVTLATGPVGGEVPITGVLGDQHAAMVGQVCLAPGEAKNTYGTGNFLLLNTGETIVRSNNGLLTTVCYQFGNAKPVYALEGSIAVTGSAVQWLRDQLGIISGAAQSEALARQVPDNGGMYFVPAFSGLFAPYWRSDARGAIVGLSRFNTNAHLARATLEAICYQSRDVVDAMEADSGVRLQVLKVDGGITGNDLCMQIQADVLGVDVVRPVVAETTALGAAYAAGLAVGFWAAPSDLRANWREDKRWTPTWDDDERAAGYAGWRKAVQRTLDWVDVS

Regarding `COc1ccc(NC(=O)c2cc(N(C)Cc3cccc(F)c3)ncn2)cc1` [Compound 13, 6-((3-Fluorobenzyl)(methyl)amino)-N-(4-methoxyphenyl)pyrimidine-4-carboxamide], in assay [1], the “14 day GAST/Fe MIC99 against 13-resistant mutant” value is above 160 µM.
On the same count and under the same terms, in the case of `CC(C)Oc1ccc(NC(=O)c2cc(N(C)Cc3ccc(F)cc3)ncn2)cc1` [Compound 36, 6-((4-Fluorobenzyl)(methyl)amino)-N-(4-isopropoxyphenyl)pyrimidine-4-carboxamide] it was above 160 µM; in that of `COc1ccc(NC(=O)c2cc(N(C)Cc3ccccc3)ncn2)cc1` [Compound 1, 6-(Benzyl(methyl)amino)-N-(4-methoxyphenyl)pyrimidine-4-carboxamide], above 160 µM; in that of `CN(Cc1ccc(C(F)(F)F)nc1)c1cc(C(=O)Nc2ccccc2)ncn1` [Compound 20, 6-(Methyl((6-(trifluoromethyl)pyridin-3-yl)methyl)amino)-N-phenylpyrimidine-4-carboxamide], above 160 µM.
Same read-out and setting: under `CN(Cc1ccc(F)cc1)c1cc(C(=O)Nc2ccccc2)ncn1` [Compound 10, 6-((4-Fluorobenzyl)(methyl)amino)-N-phenylpyrimidine-4-carboxamide] stands above 160 µM.
Consider `O=C(Nc1ccccc1)c1ccc(=O)n(Cc2ccc(F)cc2)c1` [Compound 25, 1-(4-Fluorobenzyl)-6-oxo-N-phenyl-1,6-dihydropyridine-3-carboxamide], for which the IC50 on (UniProt A0A0H3M9R5) (read-out: IC50) is at least 30 µM; on (UniProt A0A0H3M9R5) (read-out: pIC50 (converted)), at least 30.2 µM; on (UniProt A0A0H3MB87) (read-out: IC50), at least 30 µM; at (UniProt A0A0H3MB87) (read-out: pIC50 (converted)), at least 30.2 µM; at (UniProt A0A0H3MC72) (read-out: IC50), at least 30 µM; at (UniProt A0A0H3MC72) (read-out: pIC50 (converted)), at least 30.2 µM. In addition, the figures for the IC50 on (UniProt A0A0H3MFG4) (read-out: IC50) and on (UniProt A0A0H3MFG4) (read-out: pIC50 (converted)) were at least 30 µM and at least 30.2 µM, respectively.
